melting point [°C]	SMILES
64 to 66	COCCn1c(C)c(C)s/c1=N\C(=O)c1cccc(C(F)(F)F)c1
64 to 66	CCn1c(C)c(C(C)C)s/c1=N\C(=O)c1cccc(C(F)(F)F)c1F
140 to 142	Cc1c(C(C)(C)C)s/c(=N\C(=O)c2cccc(C(F)(F)F)c2)n1C
56 to 58	O=C(/N=c1\ccccn1CCC1CC1)c1cccc(C(F)(F)F)c1F
104.5 to 105.5	CCOCCn1cccc/c1=N\C(=O)c1cccc(C(F)(F)F)c1F
158 to 160	CCn1c(C)c(C(C)(C)C)s/c1=N\C(=O)c1cccc(C(F)(F)F)c1
149 to 150	CCn1c(C)c(C(C)(C)C)s/c1=N\C(=O)CC1CCCC1
63 to 65	CCn1c(C)c(C(C)(C)C)s/c1=N\C(=O)c1cc(C(F)(F)F)ccc1C
135 to 137	Cc1c(C(C)(C)C)s/c(=N\C(=O)c2cccc(C(F)(F)F)c2)n1C(C)C
94 to 95	Cc1c(C(C)(C)C)s/c(=N\C(=O)c2ccc(Cl)cc2)n1CC1CC1
89 to 90	Cc1c(C(C)(C)C)s/c(=N\C(=O)c2cccc(N3CCCCC3)c2)n1CC1CC1
126 to 128	Cc1c(C(C)(C)C)s/c(=N\C(=O)c2cccc(N3CCN(C)CC3)c2)n1CC1CC1
76 to 78	Cc1c(C(C)(C)C)s/c(=N\C(=O)c2cccc(C(N)=O)c2)n1CC1CC1
122 to 123	COC(=O)c1ccc(C(=O)/N=c2\sc(C(C)(C)C)c(C)n2CC2CC2)cc1
196 to 197	Cc1c(C(C)(C)C)s/c(=N\C(=O)c2ccc(C(=O)O)cc2)n1CC1CC1
88 to 89	Cc1c(CC(C)(C)C(C)(C)C)s/c(=N\C(=O)c2cc(C(F)(F)F)ccc2F)n1CC1CC1
84 to 85	O=C(/N=c1\ccc(C(F)(F)F)cn1CC1CC1)c1cccc(C(F)(F)F)c1
131 to 132	COCCNC1=C(C(=O)/N=c2\sc(C(C)(C)C)c(C)n2CC2CC2)CC(C(F)(F)F)C=C1 (stereo not shown)
131 to 133	CCN(CC)c1ccc(C(F)(F)F)cc1C(=O)/N=c1\sc(C(C)(C)C)c(C)n1CC1CC1
138 to 140	Cc1c(C(C)(C)C)s/c(=N\C(=O)c2cc(C(F)(F)F)ccc2N2CCCCC2)n1CC1CC1

melting point [°C]	SMILES
104 to 106	CCc1ccnc(C(=O)/N=c2\sc(C(C)(C)C)c(C)n2CC2CC2)c1
93 to 94	Cc1c(C(C)(C)C)s/c(=N\C(=O)C(F)(F)C(F)F)n1CC1CC1
89 to 91	COc1ccc(OC)c(CC(=O)/N=c2\sc(C(C)(C)C)c(C)n2CC2CC2)c1
68 to 69	COCCn1c(C)c(C(C)(C)C)s/c1=N\C(=O)c1ccc(Cl)cc1F
147 to 149	Cc1c(C(C)(C)C)s/c(=N\C(=O)c2cccc(C(F)(F)F)c2)n1CCO
76 to 78	Cc1c(C(C)(C)C)s/c(=N\C(=O)c2cccc(C(F)(F)F)c2)n1CCN
138 to 140	Cc1c(C(=O)N(C)C)s/c(=N\C(=O)c2cccc(C(F)(F)F)c2)n1CC1CC1
156 to 158	Cc1c(C(=O)NCCN2CCOCC2)s/c(=N\C(=O)c2cccc(C(F)(F)F)c2)n1CC1CC1
161 to 162	Cc1s/c(=N\C(=O)c2cccc(C(F)(F)F)c2)n(CC2CC2)c1-c1ccccc1
76 to 78	Cc1c(C(C)C)o/c(=N\C(=O)c2cc(C(F)(F)F)ccc2F)n1CC1CC1
118 to 120	COc1ccc(C(F)(F)F)cc1C(=O)/N=c1\oc(C(C)C)c(C)n1CC1CC1
115 to 116	O=C(/N=c1\ccc(-c2ccccc2)cn1CC1CC1)c1cccc(C(F)(F)F)c1F
159 to 160	O=C(/N=c1\sc2c(n1CC1CC1)CCCC2)c1cccc(C(F)(F)F)c1
126 to 128	COc1ccc/c(=N\C(=O)c2cccc(C(F)(F)F)c2F)n1CC1CC1
69 to 71	O=C(/N=c1\c(F)cc(F)cn1CC1CC1)c1cccc(C(F)(F)F)c1F
117.5 to 118	COc1ccc(C(=O)/N=c2\cc(C)cc(C)n2C)c(OC)c1
97 to 98	Cc1c/c(=N\C(=O)c2cccc(C(F)(F)F)c2F)n(CCC2CC2)n1C
136 to 137	CCOCCn1/c(=N/C(=O)c2cccc(C(F)(F)F)c2F)cc(C)n1C
88 to 90	Cc1c/c(=N\C(=O)c2cccc(C(F)(F)F)c2F)n(CCOC(C)C)n1C
122 to 124	Cn1c(C(C)(C)C)c/c(=N\C=O)n1CC1CC1

melting point [°C]	SMILES
113 to 114	CC(C)c1ccccc1C(=O)/N=c1\cc(C(C)(C)C)n(C)n1CC1CC1
83 to 85	Cn1c(C(C)(C)C)c/c(=N\C(=O)c2ccccc2C(F)(F)F)n1CC1CC1
127 to 128	Cn1c(C(C)(C)C)c/c(=N\C(=O)c2cccc(Br)c2F)n1CC1CC1
153 to 155	Cc1cccc(C(=O)/N=c2\cc(C(C)(C)C)n(C)n2CC2CC2)c1Br
164 to 165	Cn1c(C(C)(C)C)c/c(=N\C(=O)c2cc(Cl)ccc2Cl)n1CC1CC1
121 to 122	Cn1c(C(C)(C)C)c/c(=N\S(=O)(=O)c2cccc(C(F)(F)F)c2)n1CC1CC1
76 to 78	CC(C)(C)c1nn(CC2CC2)/c(=N/C(=O)c2ccc(F)cc2C(F)(F)F)s1
62 to 63	CC(C)(C)c1nn(CC2CC2)/c(=N/C(=O)c2cnccc2Cl)s1
61 to 63	CC(C)(C)c1nn(CC2CC2)/c(=N/C(=O)c2cc(C(F)(F)F)ccc2F)o1
64 to 65	COc1ccc(C(F)(F)F)cc1C(=O)/N=c1\cc(C(C)(C)C)on1CC1CC1
90 to 92	CCn1cc(C)s/c1=N\C(=O)c1cccc(C(F)(F)F)c1F
115 to 117	Cc1cn(CC2CC2)/c(=N\C(=O)c2cccnc2)s1
182 to 183	Cc1s/c(=N\C(=O)c2cccc(C(F)(F)F)c2F)n(C)c1C
125 to 127	Cc1s/c(=N\C(=O)c2ccccc2Cl)n(CC2CC2)c1C
86 to 88	CC(C)n1cccc/c1=N\C(=O)c1cccc(C(F)(F)F)c1F
144 to 146	Cc1s/c(=N\C(=O)c2ccc(F)cc2Br)n(CC2CC2)c1C
143 to 144	Cc1s/c(=N\C(=O)c2ccc(F)cc2C(F)(F)F)n(CC2CC2)c1C
108 to 110	CC[C@H](C(=O)/N=c1\sc(C)c(C)n1CC1CC1)c1ccccc1 (racemic)

From patent US20080312435A1, “Imine Compound” (TAISHO PHARMACEUTICAL CO., LTD., priority 2004, published 2008)
